# Experimental data reported in ChEMBL document CHEMBL1649173, “Single-dose escalation and multiple-dose safety, tolerability, and pharmacokinetics of IDX899, a candidate human immunodeficiency virus type 1 nonnucleoside reverse transcriptase inhibitor, in healthy subjects” (Antimicrob Agents Chemother, 2009).
# Legend:
# [1] = Half life in healthy human at 800 mg, po qd after 1 day; format: ADME, organism-based; details: in vivo
# [2] = Half life in fasted state healthy human at 100 mg, po administered as single dose; format: ADME, organism-based; details: in vivo
# [3] = organism: Homo sapiens; assay: Protein binding in human; format: ADME, organism-based; details: in vivo
# [4] = AUC (0 to infinity) in fasted state healthy human at 100 mg, po administered as single dose; format: ADME, organism-based; design: dose 100 mg, time infinity, route oral; details: plasma
# [5] = system: Homo sapiens; assay: Toxicity in healthy human assessed as incidence of adverse events at 50 to 1200 mg, po administered as single dose; format: organism-based; details: in vivo
# [6] = Apparent total plasma clearance in fed state healthy human at 1200 mg, po administered as single dose 0; format: ADME, organism-based
# [7] = Tmax in fasted state healthy human at 100 mg, po administered as single dose; format: ADME, organism-based; details: in vivo
# [8] = Half life in fed state healthy human at 400 mg, po administered as single dose; format: ADME, organism-based; details: in vivo
# [9] = Tmax in fasted state healthy human at 400 mg, po administered as single dose; format: ADME, organism-based; details: in vivo
# [10] = Apparent total plasma clearance in fasted state healthy human at 400 mg, po administered as single dose; format: ADME, organism-based
# [11] = Cmax in fed state healthy human at 200 mg, po administered as single dose; format: ADME, organism-based; design: dose 200 mg, route oral; details: in vivo
# [12] = Trough plasma concentration in healthy human at 400 mg, po bid after 7 days; format: ADME, organism-based; details: read-out: Cmin
# [13] = Tmax in fed state healthy human at 800 mg, po administered as single dose; format: ADME, organism-based; details: in vivo
# [14] = Tmax in fasted state healthy human at 50 mg, po administered as single dose; format: ADME, organism-based; details: in vivo
# [15] = system: Homo sapiens; assay: Toxicity in healthy human assessed as incidence of nausea at 400 mg, po bid and 800 mg, po qd for 7 days; format: organism-based; details: in vivo, 168 h
# [16] = system: Human immunodeficiency virus 1; assay: Antiviral activity against HIV1; format: functional, organism-based
# [17] = Half life in fasted state healthy human at 200 mg, po administered as single dose; format: ADME, organism-based; details: in vivo
# [18] = Tmax in fed state healthy human at 1200 mg, po administered as single dose; format: ADME, organism-based; details: in vivo
# [19] = Cmax in healthy human at 400 mg, po bid after 7 days; format: ADME, organism-based; design: dose 400 mg, route oral; details: in vivo
# [20] = AUC (0 to infinity) in fed state female healthy human at 400 mg, po administered as single dose; format: ADME, organism-based; design: dose 400 mg, time infinity, route oral; details: plasma
# [21] = Apparent total volume of distribution in healthy human at 800 mg, po qd after 1 day; format: ADME, organism-based; details: in vivo, read-out: Vz/F
# [22] = AUC (0 to infinity) in fasted state healthy human at 400 mg, po administered as single dose; format: ADME, organism-based; design: dose 400 mg, time infinity, route oral; details: plasma
# [23] = Half life in fed state female healthy human at 400 mg, po administered as single dose; format: ADME, organism-based; details: in vivo
# [24] = Apparent total plasma clearance in fasted state healthy human at 50 mg, po administered as single dose; format: ADME, organism-based
# [25] = Tmax in healthy human at 400 mg, po bid after 1 day; format: ADME, organism-based; details: in vivo
# [26] = Apparent total plasma clearance in fed state healthy human at 200 mg, po administered as single dose; format: ADME, organism-based
# [27] = Apparent total volume of distribution in healthy human at 400 mg, po bid after 7 days; format: ADME, organism-based; details: in vivo, read-out: Vz/F
# [28] = Apparent total volume of distribution in healthy human at 800 mg, po qd after 7 days; format: ADME, organism-based; details: in vivo, read-out: Vz/F
# [29] = Plasma concentration in fed state healthy human at 400 mg, po administered as single dose after 24 hrs; format: ADME, organism-based
# [30] = AUC (0 to infinity) in healthy human at 800 mg, po qd after 1 day; format: ADME, organism-based; design: dose 800 mg, time infinity, route oral; details: plasma
# [31] = Tmax in fed state female healthy human at 400 mg, po administered as single dose; format: ADME, organism-based; details: in vivo
# [32] = Plasma concentration in fed state healthy human at 1200 mg, po administered as single dose after 24 hrs; format: ADME, organism-based
# [33] = Half life in fed state healthy human at 800 mg, po administered as single dose; format: ADME, organism-based; details: in vivo
# [34] = Cmax in fasted state healthy human at 200 mg, po administered as single dose; format: ADME, organism-based; design: dose 200 mg, route oral; details: in vivo
# [35] = system: Homo sapiens; assay: Toxicity in healthy human assessed as incidence of dizziness at 400 mg, po bid and 800 mg, po qd for 7 days; format: organism-based; details: in vivo, 168 h
# [36] = Plasma concentration in fed state female healthy human at 400 mg, po administered as single dose after 24 hrs; format: ADME, organism-based
# [37] = system: Homo sapiens; assay: Toxicity in healthy human assessed as incidence of abnormal dreams at 400 mg, po bid and 800 mg, po qd for 7 days; format: organism-based; details: in vivo, 168 h
# [38] = Cmax in healthy human at 400 mg, po bid after 1 day; format: ADME, organism-based; design: dose 400 mg, route oral; details: in vivo
# [39] = Plasma concentration in fed state healthy human at 200 mg, po administered as single dose after 24 hrs; format: ADME, organism-based
# [40] = Half life in fed state healthy human at 1200 mg, po administered as single dose; format: ADME, organism-based; details: in vivo
# [41] = AUC (0 to infinity) in healthy human at 800 mg, po qd after 7 days; format: ADME, organism-based; design: dose 800 mg, route oral, time infinity; details: plasma
# [42] = Apparent total volume of distribution in fed state healthy human at 200 mg, po administered as single dose; format: ADME, organism-based; details: in vivo, read-out: Vz/F
# [43] = Plasma concentration in fasted state healthy human at 200 mg, po administered as single dose after 24 hrs; format: ADME, organism-based
# [44] = Half life in fed state healthy human at 200 mg, po administered as single dose; format: ADME, organism-based; details: in vivo
# [45] = Apparent total plasma clearance in healthy human at 400 mg, po bid after 7 days; format: ADME, organism-based
# [46] = Tmax in healthy human at 400 mg, po bid after 7 days; format: ADME, organism-based; details: in vivo
# [47] = Half life in fasted state healthy human at 50 mg, po administered as single dose; format: ADME, organism-based; details: in vivo
# [48] = Cmax in fed state female healthy human at 400 mg, po administered as single dose; format: ADME, organism-based; design: dose 400 mg, route oral; details: in vivo
# [49] = Tmax in healthy human at 800 mg, po qd after 1 day; format: ADME, organism-based; details: in vivo
# [50] = Half life in healthy human at 800 mg, po qd after 7 days; format: ADME, organism-based; details: in vivo
# [51] = Apparent total volume of distribution in fasted state healthy human at 50 mg, po administered as single dose; format: ADME, organism-based; details: in vivo, read-out: Vz/F
smiles,measurement,setting,value
COP(=O)(c1cc(C)cc(/C=C/C#N)c1)c1c(C(N)=O)[nH]c2ccc(Cl)cc12 (stereo unspecified),half-life,[1],8.3 h
same,half-life,[2],6.8 h
same,Activity,[3],> 99.8%
same,AUC(0-inf),[4],15800 ng·h/mL
same,Activity,[5],22.4%
same,CL/F,[6],197 mL/min
same,Tmax,[7],1.5 h
same,half-life,[8],9.8 h
same,Tmax,[9],1.8 h
same,CL/F,[10],480 mL/min
same,Cmax,[11],1300 ng/mL
same,concentration at 168 h,[12],2100 ng/mL
same,Tmax,[13],6 h
same,Tmax,[14],1.5 h
same,Activity,[15],0%
same,IC50,[16],1.2 nM
same,half-life,[17],11.9 h
same,Tmax,[18],10.1 h
same,Cmax,[19],4000 ng/mL
same,AUC(0-inf),[20],26500 ng·h/mL
same,Vd/F,[21],151 L
same,AUC(0-inf),[22],14700 ng·h/mL
same,half-life,[23],13.9 h
same,CL/F,[24],103 mL/min
same,Tmax,[25],4 h
same,CL/F,[26],230 mL/min
same,Vd/F,[27],236 L
same,Vd/F,[28],366 L
same,concentration at 24 h,[29],360 ng/mL
same,AUC(0-inf),[30],68000 ng·h/mL
same,Tmax,[31],5 h
same,concentration at 24 h,[32],2020 ng/mL
same,half-life,[33],11.5 h
same,Cmax,[34],700 ng/mL
same,Activity,[35],0%
same,concentration at 24 h,[36],290 ng/mL
same,Activity,[37],6.3%
same,Cmax,[38],2000 ng/mL
same,concentration at 24 h,[39],190 ng/mL
same,half-life,[40],7.9 h
same,AUC(0-inf),[41],54600 ng·h/mL
same,Vd/F,[42],201 L
same,concentration at 24 h,[43],70 ng/mL
same,half-life,[44],9.5 h
same,CL/F,[45],268 mL/min
same,Tmax,[46],4 h
same,half-life,[47],6.2 h
same,Cmax,[48],1900 ng/mL
same,Tmax,[49],4 h
same,half-life,[50],13.6 h
same,Vd/F,[51],53.3 L
